Source: patent US20040142929A1, “Derivatives of aryl (or heteroaryl) azolylcarbinoles for the treatment of urinary incontinence” (priority 2001, published 2004)

What was measured:
[1] = test system: Urinary incontinence secondary to overactive bladder (detrusor hyperreflexia or instability) or idiopathic urge incontinence; experiment: Clinical Study A: placebo controlled clinical trial, 84 days; assay type: in vivo, human
Protocol: (§1) In a placebo controlled clinical trial 79 patients were randomised. Patients from both genders aged between 18 and 80 years (both inclusive) were included. They had Urinary incontinence secondary to overactive bladder (detrusor hyperreflexia or instability) or idiopathic urge incontinence confirmed by the medical history and urodynamic study.
The patients were treated within one group with (±)-5-{α-[2-(dimethylamino)ethoxy]benzyl}-1-methyl-1H-pirazole citrate, 400 mg, twice a day, tablets for oral administration, or within another group with placebo in matching tablets, twice a day, for administration by oral route. The patients were treated for 84 days.
Efficacy was measured by the difference from baseline in the mean number of leakages, micturitions, urgencies and voidings/24 hours as provided by a 7-day frequency-volume chart in the end of study visit
The primary efficacy analysis was based on the PP population. The treatment groups were compared with respect to the treatment effect, defined as the difference between treatment groups for changes from baseline in the number of voidings per 24 hours.
(§2) As an addition the percentage of responders was compared based on an analysis of the number of patients having <8 voidings/day or experienced complete dryness or both. The statistical significance was determined.

[2] = test system: Urinary incontinence secondary to overactive bladder (detrusor hyperreflexia or instability) or idiopathic urge incontinence; experiment: Clinical Study B: placebo controlled clinical trial, 84 days; assay type: in vivo, human
Protocol: as §1, with “135” for “79”
The patients were treated within one group with […]{α-[2-(dimethylamino)ethoxy]benzyl}-1-methyl-1H-pirazole citrate, 230 mg b.i.d, capsules (meaning 400 mg (±)-5-{α-[2-(dimethylamino)ethoxy]benzyl}-1-methyl-1H-pirazole citrate/capsule) for oral administration (twice daily) or within another group with placebo, matching capsules, […], for administration by oral route. The patients were treated for 84 days.
Efficacy was measured by the difference from baseline in the mean number of voidings/24 hours as provided by a 7-day frequency-volume chart in the end of study visit.
The primary efficacy analysis was based on the PP population. […]
as §2

[3] = patients, 400 mg citrate twice a day, oral tablets, 84 days, difference from baseline, 7-day frequency-volume chart

SMILES: CN(C)CCOC(c1ccccc1)c1ccnn1C.O=C(O)CC(O)(CC(=O)O)C(=O)O (racemic) [(±)-5-{α-[2-(dimethylamino)ethoxy]benzyl}-1-methyl-1H-pirazole citrate]
- improving urge incontinence caused by overactive bladder: efficacy variables compared to placebo ([1]; citrate 400 mg twice a day (equivalent to 230 mg base twice a day), oral route): statistical and clinically significant improvements compared to placebo in the majority of efficacy variables considered
- mean number of daily leakages compared with placebo [1, 3]: significant reduction
- mean number of daily micturitions compared with placebo [1, 3]: significant reduction
- mean number of daily urgencies compared with placebo [1, 3]: significant reduction
- mean number of daily voidings compared with placebo [1, 3]: significant reduction

SMILES: CN(C)CCOC(c1ccccc1)c1ccnn1C.O=C(O)CC(O)(CC(=O)O)C(=O)O (racemic) [(±)-5-{α-[2-(dimethylamino)ethoxy]benzyl}-1-methyl-1H-pirazole]
- percentage of responders (patients having <8 voidings/day or complete dryness or both) versus placebo ([1]; patients, 400 mg citrate twice a day, oral, 84 days, FIG. 1): superior to placebo
- percentage of responders (patients having <8 voidings/day or complete dryness or both) versus placebo ([2]; 230 mg b.i.d., oral, FIG. 2): superior to placebo
- reduction of the mean number of voidings per 24 hours (change from baseline) ([2]; patients, 230 mg b.i.d. (400 mg citrate/capsule), oral capsules, PP population): 5.83 units
